Where “and” joins values, the source holds several entries; their conditions need not be identical. Equal entries are not always repeated. Marks after values point to notes of the source that are not given here.
System: anti collagen antibodies induced arthritis (ACAIA)
Assay: Anti collagen antibodies induced arthritis (ACAIA) in mice, intra-articular treatment: paw thickness, arthritis clinical score, body weight;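 also: mouse arthritis induced by IV anti-collagen mAb on day 0 plus IP LPS on day 4, with body weight, caliper paw thickness and 0-4 paw score tracked against a day 0 baseline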

Cn1cc(-c2cccc(O)c2Oc2ccccc2)c2cc[nH]c2c1=O [BETi1]
Paw thickness of treated leg (Avg.) (0.1 mg/kg IA (Group 4), Day 7): 2.82 mm | Paw thickness of untreated leg (Avg.) (0.1 mg/kg IA (Group 4), Day 7): 2.87 mm | Percent change of weight per day (Av) (0.1 mg/kg IA (Group 4), Day 7): 88.48% | Δ clinical score untreated -treated, Avg. Delta (0.1 mg/kg IA (Group 4), Day 7): 0.00 points | Clinical score of treated leg (Avg.) (0.1 mg/kg IA (Group 4), Day 8): 2.29 points | Paw thickness Avg. Delta untreated -treated (0.1 mg/kg IA (Group 4), Day 8): −0.05 mm | Paw thickness of treated leg (Avg.) (0.1 mg/kg IA (Group 4), Day 8): 2.86 mm | Paw thickness of untreated leg (Avg.) (0.1 mg/kg IA (Group 4), Day 8): 2.81 mm | Percent change of weight per day (Av) (0.1 mg/kg IA (Group 4), Day 8): 87.72% | Δ clinical score untreated -treated, Avg. Delta (0.1 mg/kg IA (Group 4), Day 8): 0.00 points | Clinical score of treated leg (Avg.) (0.1 mg/kg IA (Group 4), Day 10): 2.43 points | Paw thickness Avg. Delta untreated -treated (0.1 mg/kg IA (Group 4), Day 10): 0.05 mm | Paw thickness of treated leg (Avg.) (0.1 mg/kg IA (Group 4), Day 10): 2.94 mm | Paw thickness of untreated leg (Avg.) (0.1 mg/kg IA (Group 4), Day 10): 2.99 mm | Percent change of weight per day (Av) (0.1 mg/kg IA (Group 4), Day 10): 88.75% | Δ clinical score untreated -treated, Avg. Delta (0.1 mg/kg IA (Group 4), Day 10): 0.14 points | Clinical score of treated leg (Avg.) (0.1 mg/kg IA (Group 4), Day 12): 2.57 points | Paw thickness Avg. Delta untreated -treated (0.1 mg/kg IA (Group 4), Day 12): −0.05 mm | Paw thickness of treated leg (Avg.) (0.1 mg/kg IA (Group 4), Day 12): 3.10 mm | Paw thickness of untreated leg (Avg.) (0.1 mg/kg IA (Group 4), Day 12): 3.05 mm | Percent change of weight per day (Av) (0.1 mg/kg IA (Group 4), Day 12): 93.51% | Δ clinical score untreated -treated, Avg. Delta (0.1 mg/kg IA (Group 4), Day 12): 0.43 points | Clinical score of treated leg (Avg.) (1 mg/kg IA (Group 3), Baseline): 0.00 points | Paw thickness Avg. Delta untreated -treated (1 mg/kg IA (Group 3), Baseline): 0.04 mm | Paw thickness of treated leg (Avg.) (1 mg/kg IA (Group 3), Baseline): 2.05 mm | Paw thickness of untreated leg (Avg.) (1 mg/kg IA (Group 3), Baseline): 2.09 mm | Percent change of weight per day (Av) (1 mg/kg IA (Group 3), Baseline): 100.00% | Percent change of weight per day (individual animal) (1 mg/kg IA (Group 3), Baseline): 100% | Δ clinical score untreated -treated, Avg. Delta (1 mg/kg IA (Group 3), Baseline): 0.00 points | Clinical score of treated leg (Avg.) (1 mg/kg IA (Group 3), Day 3): 0.00 points | Paw thickness Avg. Delta untreated -treated (1 mg/kg IA (Group 3), Day 3): 0.02 mm | Paw thickness of treated leg (Avg.) (1 mg/kg IA (Group 3), Day 3): 2.11 mm | Paw thickness of untreated leg (Avg.) (1 mg/kg IA (Group 3), Day 3): 2.13 mm | Percent change of weight per day (Av) (1 mg/kg IA (Group 3), Day 3): 99.97% | Percent change of weight per day (individual animal) (1 mg/kg IA (Group 3), Day 3): 100.9804% and 98.22% and 102.4631% and 98.49% and 97.67% | Δ clinical score untreated -treated, Avg. Delta (1 mg/kg IA (Group 3), Day 3): 0.00 points | Clinical score of treated leg (Avg.) (1 mg/kg IA (Group 3), Day 4): 0.00 points | Paw thickness Avg. Delta untreated -treated (1 mg/kg IA (Group 3), Day 4): −0.03 mm | Paw thickness of treated leg (Avg.) (1 mg/kg IA (Group 3), Day 4): 2.22 mm | Paw thickness of untreated leg (Avg.) (1 mg/kg IA (Group 3), Day 4): 2.19 mm | Percent change of weight per day (Av) (1 mg/kg IA (Group 3), Day 4): 101.40% | Percent change of weight per day (individual animal) (1 mg/kg IA (Group 3), Day 4): 101.9608% and 100% (2×) and 103.9409% and 100.9302% | Δ clinical score untreated -treated, Avg. Delta (1 mg/kg IA (Group 3), Day 4): 0.00 points | Clinical score of treated leg (Avg.) (1 mg/kg IA (Group 3), Day 5): 0.00 points | Paw thickness Avg. Delta untreated -treated (1 mg/kg IA (Group 3), Day 5): 0.04 mm | Paw thickness of treated leg (Avg.) (1 mg/kg IA (Group 3), Day 5): 2.13 mm | Paw thickness of untreated leg (Avg.) (1 mg/kg IA (Group 3), Day 5): 2.17 mm | Percent change of weight per day (Av) (1 mg/kg IA (Group 3), Day 5): 91.68% | Percent change of weight per day (individual animal) (1 mg/kg IA (Group 3), Day 5): 93.63% and 89.78% and 94.58% and 88.94% and 89.3% | Δ clinical score untreated -treated, Avg. Delta (1 mg/kg IA (Group 3), Day 5): 0.00 points | Clinical score of treated leg (Avg.) (1 mg/kg IA (Group 3), Day 6): 0.14 points | Paw thickness Avg. Delta untreated -treated (1 mg/kg IA (Group 3), Day 6): 0.23* mm | Paw thickness of treated leg (Avg.) (1 mg/kg IA (Group 3), Day 6): 2.27* mm | Paw thickness of untreated leg (Avg.) (1 mg/kg IA (Group 3), Day 6): 2.50 mm | Percent change of weight per day (Av) (1 mg/kg IA (Group 3), Day 6): 89.39% | Percent change of weight per day (individual animal) (1 mg/kg IA (Group 3), Day 6): 91.67% and 82.67% and 92.61% and 90.45% and 89.77% | Δ clinical score untreated -treated, Avg. Delta (1 mg/kg IA (Group 3), Day 6): 0.57 points | Clinical score of treated leg (Avg.) (1 mg/kg IA (Group 3), Day 7): 0.71 points | Paw thickness Avg. Delta untreated -treated (1 mg/kg IA (Group 3), Day 7): 0.56* mm | Paw thickness of treated leg (Avg.) (1 mg/kg IA (Group 3), Day 7): 2.25** mm | Paw thickness of untreated leg (Avg.) (1 mg/kg IA (Group 3), Day 7): 2.80 mm | Percent change of weight per day (Av) (1 mg/kg IA (Group 3), Day 7): 89.93% | Percent change of weight per day (individual animal) (1 mg/kg IA (Group 3), Day 7): 89.71% and 84% and 93.1% and 89.45% and 90.23% | Δ clinical score untreated -treated, Avg. Delta (1 mg/kg IA (Group 3), Day 7): 0.71 points | Clinical score of treated leg (Avg.) (1 mg/kg IA (Group 3), Day 8): 1.00 points | Paw thickness Avg. Delta untreated -treated (1 mg/kg IA (Group 3), Day 8): 0.56 mm | Paw thickness of treated leg (Avg.) (1 mg/kg IA (Group 3), Day 8): 2.36* mm | Paw thickness of untreated leg (Avg.) (1 mg/kg IA (Group 3), Day 8): 2.92 mm | Percent change of weight per day (Av) (1 mg/kg IA (Group 3), Day 8): 91.22% | Percent change of weight per day (individual animal) (1 mg/kg IA (Group 3), Day 8): 90.69% and 88% and 92.61% and 89.95% | Δ clinical score untreated -treated, Avg. Delta (1 mg/kg IA (Group 3), Day 8): 1.43 points | Clinical score of treated leg (Avg.) (1 mg/kg IA (Group 3), Day 10): 0.71 points | Paw thickness Avg. Delta untreated -treated (1 mg/kg IA (Group 3), Day 10): 0.74 mm | Paw thickness of treated leg (Avg.) (1 mg/kg IA (Group 3), Day 10): 2.21* mm | Paw thickness of untreated leg (Avg.) (1 mg/kg IA (Group 3), Day 10): 2.95 mm | Percent change of weight per day (Av) (1 mg/kg IA (Group 3), Day 10): 93.11% | Percent change of weight per day (individual animal) (1 mg/kg IA (Group 3), Day 10): 92.16% and 94.67% and 93.6% and 93.47% | Δ clinical score untreated -treated, Avg. Delta (1 mg/kg IA (Group 3), Day 10): 1.29 points | Clinical score of treated leg (Avg.) (1 mg/kg IA (Group 3), Day 12): 0.57 points | Paw thickness Avg. Delta untreated -treated (1 mg/kg IA (Group 3), Day 12): 0.80 mm | Paw thickness of treated leg (Avg.) (1 mg/kg IA (Group 3), Day 12): 2.18 mm | Paw thickness of untreated leg (Avg.) (1 mg/kg IA (Group 3), Day 12): 2.98 mm | Percent change of weight per day (Av) (1 mg/kg IA (Group 3), Day 12): 97.09* percent | Percent change of weight per day (individual animal) (1 mg/kg IA (Group 3), Day 12): 95.1% and 100% and 98.03% and 96.98% and 93.49% | Δ clinical score untreated -treated, Avg. Delta (1 mg/kg IA (Group 3), Day 12): 1.86 points | reduction of arthritis score, treated vs untreated paw (1 mg/kg IA, day 12): 76.5% | reduction of paw thickness, treated vs untreated paw (1 mg/kg IA, day 12): 26.8%
